Assay [1] has as its target T1, Neuronal acetylcholine receptor subunit alpha-7 (Homo sapiens, UniProt P36544). Put plainly: Binding affinity to alpha7 nAChR.
Assay [2] deals with T2, 5-hydroxytryptamine receptor 3A (Homo sapiens, UniProt P46098).
T2 sequence (P46098 whole entry): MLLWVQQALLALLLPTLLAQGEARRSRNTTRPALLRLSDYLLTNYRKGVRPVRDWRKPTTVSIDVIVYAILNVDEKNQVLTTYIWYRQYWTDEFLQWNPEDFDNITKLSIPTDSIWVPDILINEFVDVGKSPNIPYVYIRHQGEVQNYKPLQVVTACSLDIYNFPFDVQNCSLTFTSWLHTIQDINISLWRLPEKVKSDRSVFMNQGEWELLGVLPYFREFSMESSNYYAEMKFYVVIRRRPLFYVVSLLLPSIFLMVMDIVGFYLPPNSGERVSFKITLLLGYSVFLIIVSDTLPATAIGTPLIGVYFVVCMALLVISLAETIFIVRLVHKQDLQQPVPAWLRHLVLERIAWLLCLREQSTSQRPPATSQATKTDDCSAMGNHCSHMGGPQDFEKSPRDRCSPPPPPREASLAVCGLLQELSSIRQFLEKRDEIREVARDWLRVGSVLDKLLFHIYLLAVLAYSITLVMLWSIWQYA
Put plainly: Binding affinity to 5HT3 receptor.

In assay [3] the target is T1, Neuronal acetylcholine receptor subunit alpha-7. Put plainly: Agonist activity at alpha7 nAChR at 32 uM. In kind it is functional.
Assay [4] addresses T3, 5-hydroxytryptamine receptor 3A (Homo sapiens) (UniProt P46098).
T3 sequence (whole entry): T2 sequence (P46098 whole entry)
Put plainly: Binding affinity to human 5HT3 receptor at 10 uM by radioligand binding assay.

In assay [5] the target is Neuronal acetylcholine receptor subunit alpha-7 (Rattus norvegicus, UniProt Q05941). Description: Agonist activity at rat alpha7 nAchR expressed in Xenopus oocyte. In kind it is functional.
Chain of Neuronal acetylcholine receptor subunit alpha-7 (Rattus norvegicus, UniProt Q05941) (Q05941 whole entry): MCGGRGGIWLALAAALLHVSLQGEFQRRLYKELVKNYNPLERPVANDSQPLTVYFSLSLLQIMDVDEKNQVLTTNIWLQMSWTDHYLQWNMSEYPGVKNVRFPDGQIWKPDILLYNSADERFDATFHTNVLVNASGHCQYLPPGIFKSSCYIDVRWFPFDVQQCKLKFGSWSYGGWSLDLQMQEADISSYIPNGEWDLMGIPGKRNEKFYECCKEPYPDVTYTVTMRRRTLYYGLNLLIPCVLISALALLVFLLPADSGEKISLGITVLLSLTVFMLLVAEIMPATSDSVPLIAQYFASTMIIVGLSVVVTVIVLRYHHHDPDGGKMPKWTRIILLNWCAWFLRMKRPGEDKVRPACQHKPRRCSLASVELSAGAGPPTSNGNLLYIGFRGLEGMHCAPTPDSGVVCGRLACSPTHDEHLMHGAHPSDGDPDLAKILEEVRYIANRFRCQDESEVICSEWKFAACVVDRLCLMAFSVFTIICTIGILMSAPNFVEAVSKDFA
In assay [6] the target is T1, Neuronal acetylcholine receptor subunit alpha-7. Description: Agonist activity at alpha7 nAChR. In kind it is functional.
In assay [7] the target is T2, 5-hydroxytryptamine receptor 3A. Description: Inhibition of 5HT3 receptor.
Assay [8] deals with T1, Neuronal acetylcholine receptor subunit alpha-7. Put plainly: Agonist activity at human alpha7 nAChR expressed in Xenopus oocytes assessed as induction of inward current. In kind it is functional, cell-based, Oocyte.
Assay [9] has the same target. Description: Displacement of [125I]alpha-bungarotoxin from human recombinant alpha7 nAchR. On the technique in general: Loss of bound radioactivity is the signal in a displacement assay; it reports binding, not function.
The target of assay [10] is Neuronal acetylcholine receptor; alpha4/beta2 (Homo sapiens, UniProt P17787+P43681). Put plainly: Binding affinity to alpha4beta2 nAChR. In kind it is protein-complex assay.
Chain of Neuronal acetylcholine receptor; alpha4/beta2 (P17787 whole entry): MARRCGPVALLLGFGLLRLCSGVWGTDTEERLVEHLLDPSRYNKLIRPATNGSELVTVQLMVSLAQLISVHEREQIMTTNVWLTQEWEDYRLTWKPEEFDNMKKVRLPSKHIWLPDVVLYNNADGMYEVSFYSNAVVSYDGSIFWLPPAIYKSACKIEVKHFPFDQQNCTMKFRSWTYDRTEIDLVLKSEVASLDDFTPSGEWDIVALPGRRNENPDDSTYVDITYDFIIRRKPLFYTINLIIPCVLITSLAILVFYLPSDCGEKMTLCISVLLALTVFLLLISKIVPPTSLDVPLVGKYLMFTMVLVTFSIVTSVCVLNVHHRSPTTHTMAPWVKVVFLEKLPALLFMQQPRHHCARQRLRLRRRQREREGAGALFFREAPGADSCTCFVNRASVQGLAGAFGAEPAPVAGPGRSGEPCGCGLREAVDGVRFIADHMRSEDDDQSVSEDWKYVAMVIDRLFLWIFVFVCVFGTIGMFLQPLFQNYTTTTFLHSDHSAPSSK
Chain of Neuronal acetylcholine receptor; alpha4/beta2 (P43681 whole entry): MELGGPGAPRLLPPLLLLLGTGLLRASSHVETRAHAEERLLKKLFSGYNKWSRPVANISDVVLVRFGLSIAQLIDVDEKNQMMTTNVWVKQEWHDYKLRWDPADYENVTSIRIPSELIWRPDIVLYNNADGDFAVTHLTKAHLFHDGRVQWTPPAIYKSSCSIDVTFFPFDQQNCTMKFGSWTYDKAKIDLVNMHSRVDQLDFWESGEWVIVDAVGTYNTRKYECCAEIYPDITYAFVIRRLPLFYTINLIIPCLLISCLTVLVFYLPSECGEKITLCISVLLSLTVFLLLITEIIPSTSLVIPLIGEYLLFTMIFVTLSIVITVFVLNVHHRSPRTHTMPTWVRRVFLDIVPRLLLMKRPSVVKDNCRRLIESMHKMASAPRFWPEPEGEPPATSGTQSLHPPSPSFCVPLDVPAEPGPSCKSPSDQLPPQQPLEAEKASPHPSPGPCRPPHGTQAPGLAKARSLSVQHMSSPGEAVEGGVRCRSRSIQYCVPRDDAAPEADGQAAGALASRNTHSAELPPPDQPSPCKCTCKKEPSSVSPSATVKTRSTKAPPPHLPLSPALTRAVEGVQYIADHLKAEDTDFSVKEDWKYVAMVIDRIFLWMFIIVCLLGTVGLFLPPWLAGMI
A short description of assay [11]: Selectivity ratio of alpha3 nAchR to alpha7 nAchR.
Assay [12] concerns the target T1, Neuronal acetylcholine receptor subunit alpha-7. Put plainly: Agonist activity at human alpha7 nAChR expressed in Xenopus oocytes assessed as potentiation of nicotine-induced current relative to acetylcholine. In kind it is functional, cell-based. To be noted: Oocyte.

SMILES strings stand for the structures.

T1 sequence (P36544 whole entry): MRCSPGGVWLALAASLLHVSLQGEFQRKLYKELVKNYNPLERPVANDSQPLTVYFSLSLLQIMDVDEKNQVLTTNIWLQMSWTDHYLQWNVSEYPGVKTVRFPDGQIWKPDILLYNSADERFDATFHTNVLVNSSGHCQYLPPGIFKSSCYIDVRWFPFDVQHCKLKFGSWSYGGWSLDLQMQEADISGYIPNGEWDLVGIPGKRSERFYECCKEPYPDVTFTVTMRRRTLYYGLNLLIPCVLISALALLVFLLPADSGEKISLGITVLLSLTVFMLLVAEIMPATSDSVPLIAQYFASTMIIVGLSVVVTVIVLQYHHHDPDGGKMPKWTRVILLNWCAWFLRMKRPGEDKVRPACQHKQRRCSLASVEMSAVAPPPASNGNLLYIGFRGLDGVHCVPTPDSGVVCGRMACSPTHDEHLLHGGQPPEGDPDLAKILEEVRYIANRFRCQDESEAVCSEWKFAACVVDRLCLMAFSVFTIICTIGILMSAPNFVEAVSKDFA

In the case of `O=C1O[C@]2(CN3CCC2CC3)CN1c1cc2ccccc2s1`, in [1], the affinity, expressed as Ki, was 0.075 µM.

For `c1ccc2oc(N3CCN4CCC3CC4)nc2c1`, the figures for the Ki in [1] and in [2] were 0.0225 µM and 0.013 µM, respectively. This compound had an Activity in assay [3] of 183%.

The compound `O=C1NC[C@@]2(CN3CCC2CC3)O1` had an inhibition in assay [4] of 2.5%. In [5], this compound displayed an EC50 of 21 µM.

Take `O=C(N[C@H]1CN2CCC1CC2)c1ccc2occc2c1`: the Ki in assay [1] worked out at 0.0016 µM; in [2] it was 0.663 µM. The compound also showed an EC50 in [6] of 0.043 µM. The compound further came in with an IC50 in assay [7] of 0.58 µM.

Turning to `C[C@H](OC(=O)N[C@@H]1CN2CCC1CC2)c1ccccc1F`, the Kd in assay [2] was 13 µM; in assay [9] (read-out: Kd), 0.2 µM; in assay [9] (read-out: pKd (converted)) it was 0.2 µM. Further, the EC50 in assay [8] (read-out: EC50) and in assay [8] (read-out: pEC50 (converted)) was 2 µM throughout.

In the case of `c1ccc(-c2ccc(N3CC4CNCC4C3)cn2)cc1` (configuration not stated), the inhibition constant (Ki) in assay [1] was determined as 0.0084 µM; in assay [10], 0.096 µM.

Compound `O=C(CCCCN1CCCCC1)Nc1ccc(-c2cccnc2)cc1` displayed an EC50 in assay [6] of 0.35 µM.

On to `O=C(N[C@H]1CN2CCC1CC2)c1ccc2cc[nH]c2c1`, for which the EC50 in [6] turned out to be 0.1 µM.

`O=C(NCCCCN1CCCCC1)Nc1ccc(-c2ccccn2)cc1`: the Selectivity ratio in assay [11] was found to be 5. Besides, the EC50 in assay [6] was 0.13 µM.

Compound `O=C(Nc1ccc(Br)cc1)OC1CN2CCC1CC2` (configuration not stated) yielded a Ki in assay [1] of 0.167 µM. Moreover, the Activity in assay [3] is 90%.

On to `c1cnc2nc(N3CCN4CCC3CC4)oc2c1`, for which the inhibition constant Ki was determined as 0.0303 µM in assay [1] and 0.579 µM in [2]. This compound also showed an Activity in assay [3] of 220%.

As to `O=C(Oc1ccccc1)N1CCN2CCC1CC2`, the figures for the Ki in assay [1] and in [2] were 0.739 µM and 3.99 µM, respectively. In assay [3], this compound gave an Activity of 99%.

As for `O=C(NCCCCN1CCCCC1)Nc1ccc(-c2cccnc2)cc1`, in assay [6], the EC50 was 0.12 µM.

For `Clc1cnc2nc(N3CCN4CCC3CC4)oc2c1`, the Ki turned out to be 0.001 µM in assay [1] and 1.37 µM in assay [2]. In assay [6], the EC50 was found to be 0.16 µM.

Turning to `Cc1cc(/C(=C\Nc2ccc(Cl)cc2)C(=O)Nc2ccc(Cl)cc2)on1`, the fold change (FC) in [12] came out at 2.7.

On to `Cc1nc2nc(N3CCN4CCC3CC4)oc2cc1Cl`, for which the Ki in assay [1] turned out to be 0.0032 µM; in assay [2] it was 0.244 µM. Also, the EC50 in assay [6] came out at 0.16 µM.

Usually Ki stands for the equilibrium dissociation constant of an inhibitor or competing ligand from its target. By inhibition is commonly meant the change of the read-out against control, counted positive when it falls. As a reminder, the IC50 is the concentration that inhibits the measured activity by half. A low value points to higher potency.

The record behind these values is ChEMBL document CHEMBL2151039, “Discovery and development of α7 nicotinic acetylcholine receptor modulators” (J Med Chem, 2011).
